Test results from patent publication US10494363B2, “Non-steroidal glucocorticoid receptor modulators for local drug delivery” (LEO PHARMA A/S, priority 2015, dated 2019).
pEC50, pIC50: −log10 of the molar value.

Tests used:
[1] = system: TNF alpha release from human PBMCs; assay: Inhibition of TNF alpha release from human PBMCs; format: cell-based; conditions: PBMC, LPS 1 μg/ml, 18 hours, AlphaLISA
Method: PBMC were isolated from fresh buffy coats by density centrifugation using lymphoprep (Medinor AB, cat no 1019818) tubes. Isolated PBMCs were washed in assay medium (RPMI1640 with 25 mM HEPES, 1% pen/strep, 200 mM L glutamine and 10% Foetal calf serum). Surplus PBMCs were frozen in medium containing extra 10% foetal calf serum and 5% DMSO. On the assay day, fresh cells or cryopreserved cells after thawing were washed in serum free medium (RPMI1640 with 25 mM HEPES, 1% pen/strep, 200 mM L glutamine and 0.5% human serum albumin) and counted, in order to determine the fraction of living cells (generally >95%).
Test compounds were diluted in DMSO over seven orders of magnitude, further diluted in serum-free medium and distributed into wells of 384 well tissue culture plates. LPS was added to a final concentration of 1 μg/ml to the cells. Immediately thereafter titrated test compounds were added and incubated for 18 hours at 37° C.
The level of TNF-a in the culture supernatant was quantitated by AlphaLISA (Perkin Elmer). 2-(3,5-dichloro-4-pyridinyl)-1-(7-methoxyspiro[1,3-benzodioxole-2,1′-cyclopentan]-4-yl)-ethanone (CAS 185406-34-2) at 100×IC50 was used to define the assay window.
Data were processed by sigmoidal curve fitting. EC50 and Emax were determined from the curve fits.

[2] = biological target: T1, glucocorticoid receptor (GR), recombinant full-length receptor protein (Homo sapiens, UniProt P04150); assay: Glucocorticoid receptor binding assay (fluorescence polarization kit); conditions: 4 nM receptor, 2.5 nM Fluormone GS1 tracer, 2h room temperature, read-out: GR binding ABS IC50
T1 construct: 4 nM recombinant, full-length receptor protein was incubated with increasing concentrations of GR ligand; purchased Life Technologies A-15897
T1 sequence (P04150 1-777): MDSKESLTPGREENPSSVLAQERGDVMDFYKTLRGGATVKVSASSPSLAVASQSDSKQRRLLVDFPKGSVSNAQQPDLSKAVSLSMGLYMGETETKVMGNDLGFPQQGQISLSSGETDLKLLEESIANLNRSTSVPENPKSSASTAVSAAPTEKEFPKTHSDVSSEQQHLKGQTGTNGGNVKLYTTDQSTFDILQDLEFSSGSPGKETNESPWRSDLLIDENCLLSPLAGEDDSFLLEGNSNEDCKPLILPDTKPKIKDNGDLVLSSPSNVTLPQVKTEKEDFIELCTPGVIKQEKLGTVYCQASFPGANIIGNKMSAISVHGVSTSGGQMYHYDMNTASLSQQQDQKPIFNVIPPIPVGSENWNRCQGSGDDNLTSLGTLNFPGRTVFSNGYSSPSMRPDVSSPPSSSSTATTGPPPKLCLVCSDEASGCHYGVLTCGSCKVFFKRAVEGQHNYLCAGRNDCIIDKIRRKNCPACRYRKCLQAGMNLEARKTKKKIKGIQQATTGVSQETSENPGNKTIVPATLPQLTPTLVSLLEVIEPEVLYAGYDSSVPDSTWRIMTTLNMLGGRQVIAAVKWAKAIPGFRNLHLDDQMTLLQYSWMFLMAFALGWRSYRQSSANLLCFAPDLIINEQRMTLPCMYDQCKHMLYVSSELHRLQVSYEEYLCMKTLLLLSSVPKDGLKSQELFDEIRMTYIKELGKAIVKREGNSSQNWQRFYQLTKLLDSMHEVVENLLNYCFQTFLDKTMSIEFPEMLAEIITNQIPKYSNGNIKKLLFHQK
Method: Test compounds were diluted in DMSO over seven orders of magnitude, further diluted in assay buffer and distributed into 384-well plates. The sensitivity limit of this assay was 2-4 nM.
Data were processed by sigmoidal curve fitting.
Absolute (Abs) IC50 and Emax were determined from the curve fits.

| Structure (SMILES) | pIC50 [2] | pEC50 [1] |
| --- | --- | --- |
| Cc1ccc([C@H](Oc2ccc(C(=O)N[C@H]3CCCN(C(=O)[C@H]4COC(=O)C4)C3)nc2)[C@H](C)NC(=O)C(F)(F)F)cc1 [Compound 81, N-[(3S)-1-[(3R)-5-oxotetrahydrofuran-3-carbonyl]-3-piperidyl]-5-[(1S,2S)-1-(p-tolyl)-2-[(2,2,2-trifluoroacetyl)amino]propoxy]pyridine-2-carboxamide] | – | > 7.00 |
| C[C@@H]1C[C@H]2[C@@H]3CCC4=CC(=O)C=C[C@]4(C)[C@@]3(F)[C@@H](O)C[C@]2(C)[C@@]1(O)C(=O)CO [Dexamethasone, reference compound] | – | > 7.00 |
| Cc1ccc([C@@H](Oc2ccc(C(=O)N[C@@H]3CCCN(C(=O)[C@@H]4CCC(=O)O4)C3)nc2)[C@H](C)NC(=O)C(F)(F)F)cc1 [Compound 61, N-[(3R)-1-[(2S)-5-oxotetrahydrofuran-2-carbonyl]-3-piperidyl]-5-[(1R,2S)-1-(p-tolyl)-2-[(2,2,2-trifluoroacetyl)amino]propoxy]pyridine-2-carboxamide] | – | 6.52 to 7.00 |
| Cc1ccc([C@H](Oc2ccc(C(=O)N[C@H]3CCCN(C(=O)[C@@H]4COC(=O)C4)C3)nc2)[C@H](C)NC(=O)C(F)(F)F)cc1 [Compound 80, N-[(3S)-1-[(3S)-5-oxotetrahydrofuran-3-carbonyl]-3-piperidyl]-5-[(1S,2S)-1-(p-tolyl)-2-[(2,2,2-trifluoroacetyl)amino]propoxy]pyridine-2-carboxamide] | – | > 7.00 |
| Cc1ccc([C@@H](Oc2ccc(C(=O)N[C@@H]3CCCN(C(=O)[C@H]4CCC(=O)O4)C3)nc2)[C@H](C)NC(=O)C(F)(F)F)cc1 [Compound 62, N-[(3R)-1-[(2R)-5-oxotetrahydrofuran-2-carbonyl]-3-piperidyl]-5-[(1R,2S)-1-(p-tolyl)-2-[(2,2,2-trifluoroacetyl)amino]propoxy]pyridine-2-carboxamide] | – | > 7.00 |
| Cc1ccc([C@@H](Oc2ccc(C(=O)O[C@H]3CCCN(C(=O)[C@H]4COC(=O)C4)C3)cc2)[C@H](C)NC(=O)C(F)(F)F)cc1 [Compound 70, [(3S)-1-[(3R)-5-oxotetrahydrofuran-3-carbonyl]-3-piperidyl] 4-[(1R,2S)-1-(p-tolyl)-2-[(2,2,2-trifluoroacetyl)amino]propoxy]benzoate] | – | > 7.00 |
| Cc1ccc([C@@H](Oc2ccc(C(=O)N[C@@H]3CCCN(C(=O)[C@@H]4COC(=O)C4)C3)nc2)[C@H](C)NC(=O)C(F)(F)F)cc1 [Compound 60, N-[(3R)-1-[(3S)-5-oxotetrahydrofuran-3-carbonyl]-3-piperidyl]-5-[(1R,2S)-1-(p-tolyl)-2-[(2,2,2-trifluoroacetyl)amino]propoxy]pyridine-2-carboxamide] | – | > 7.00 |
| Cc1ccc([C@@H](Oc2ccc(C(=O)N[C@H]3CCCN(C(=O)[C@@H]4COC(=O)C4)C3)nc2)[C@H](C)NC(=O)C(F)(F)F)cc1 [Compound 63, N-[(3S)-1-[(3S)-5-oxotetrahydrofuran-3-carbonyl]-3-piperidyl]-5-[(1R,2S)-1-(p-tolyl)-2-[(2,2,2-trifluoroacetyl)amino]propoxy]pyridine-2-carboxamide] | – | > 7.00 |
| Cc1ccc([C@@H](Oc2ccc(C(=O)N[C@H]3CCCN(C(=O)[C@@H]4CCC(=O)O4)C3)nc2)[C@H](C)NC(=O)C(F)(F)F)cc1 [Compound 64, N-[(3S)-1-[(2S)-5-oxotetrahydrofuran-2-carbonyl]-3-piperidyl]-5-[(1R,2S)-1-(p-tolyl)-2-[(2,2,2-trifluoroacetyl)amino]propoxy]pyridine-2-carboxamide] | – | > 7.00 |

Second part, led by results:

| pIC50 [2] | Structure (SMILES) | pEC50 [1] |
| --- | --- | --- |
| > 7.00 | Cc1ccc([C@@H](Oc2ccc(C(=O)N[C@H]3CCCN(C(=O)N[C@@H]4COC(=O)C4)C3)nc2)[C@H](C)NC(=O)C(F)(F)F)cc1 [Compound 71, N-[(3S)-1-[[(3S)-5-oxotetrahydrofuran-3-yl]carbamoyl]-3-piperidyl]-5-[(1R,2S)-1-(p-tolyl)-2-[(2,2,2-trifluoroacetyl)amino]propoxy]pyridine-2-carboxamide] | > 7.00 |
| > 7.00 | Cc1ccc([C@@H](Oc2ccc(C(=O)N[C@H]3CCCN(C(=O)O[C@@H]4CCOC4=O)C3)nc2)[C@H](C)NC(=O)C(F)(F)F)cc1 [Compound 74, [(3R)-2-oxotetrahydrofuran-3-yl] (3S)-3-[[5-[(1R,2S)-1-(p-tolyl)-2-[(2,2,2-trifluoroacetyl)amino]propoxy]pyridine-2-carbonyl]amino]piperidine-1-carboxylate] | > 7.00 |
| > 7.00 | Cc1ccc([C@@H](Oc2ccc(C(=O)N[C@H]3CCCN(C(=O)[C@H]4COC(=O)C4)C3)cc2)[C@H](C)NC(=O)C(F)(F)F)cc1 [Compound 69, N-[(3S)-1-[(3R)-5-oxotetrahydrofuran-3-carbonyl]-3-piperidyl]-4-[(1R,2S)-1-(p-tolyl)-2-[(2,2,2-trifluoroacetyl)amino]propoxy]benzamide] | > 7.00 |
| > 7.00 | C[C@H](NC(=O)[C@H]1CCCO1)[C@H](Oc1ccc(C(=O)O[C@H]2CCCN(C(=O)[C@@H]3COC(=O)C3)C2)cc1)c1ccc(C2CC2)cc1 [Compound 77, [(3S)-1-[(3S)-5-oxotetrahydrofuran-3-carbonyl]-3-piperidyl] 4-[(1R,2S)-1-(4-cyclopropylphenyl)-2-[[(2R)-tetrahydrofuran-2-carbonyl]amino]propoxy]benzoate] | > 7.00 |
| > 7.00 | Cc1ccc([C@@H](Oc2ccc(C(=O)N[C@H]3CCCN(C(=O)O[C@@H]4COC(=O)C4)C3)nc2)[C@H](C)NC(=O)C(F)(F)F)cc1 [Compound 75, [(3S)-5-oxotetrahydrofuran-3-yl] (3S)-3-[[5-[(1R,2S)-1-(p-tolyl)-2-[(2,2,2-trifluoroacetyl)amino]propoxy]pyridine-2-carbonyl]amino]piperidine-1-carboxylate] | 6.52 to 7.00 |
| > 7.00 | C[C@H](NC(=O)C(F)(F)F)[C@H](Oc1ccc(C(=O)N[C@H]2CCCN(C(=O)[C@H]3COC(=O)C3)C2)nc1)c1ccc(Br)cc1 [Compound 67, 5-[(1R,2S)-1-(4-bromophenyl)-2-[(2,2,2-trifluoroacetyl)amino]propoxy]-N-[(3S)-1-[(3R)-5-oxotetrahydrofuran-3-carbonyl]-3-piperidyl]pyridine-2-carboxamide] | > 7.00 |
| > 7.00 | Cc1ccc([C@@H](Oc2ccc(C(=O)N[C@H]3CCCN(C(=O)O[C@H]4CCOC4=O)C3)nc2)[C@H](C)NC(=O)C(F)(F)F)cc1 [Compound 73, [(3S)-2-oxotetrahydrofuran-3-yl] (3S)-3-[[5-[(1R,2S)-1-(p-tolyl)-2-[(2,2,2-trifluoroacetyl)amino]propoxy]pyridine-2-carbonyl]amino]piperidine-1-carboxylate] | – |
| > 7.00 | Cc1ccc([C@@H](Oc2ccc(C(=O)N[C@H]3CCCN(C(=O)N[C@H]4COC(=O)C4)C3)nc2)[C@H](C)NC(=O)C(F)(F)F)cc1 [Compound 72, N-[(3S)-1-[[(3R)-5-oxotetrahydrofuran-3-yl]carbamoyl]-3-piperidyl]-5-[(1R,2S)-1-(p-tolyl)-2-[(2,2,2-trifluoroacetyl)amino]propoxy]pyridine-2-carboxamide] | 6.52 to 7.00 |
| > 7.00 | Cc1ccc([C@@H](Oc2ccc(C(=O)N[C@H]3CCCN(C(=O)O[C@H]4COC(=O)C4)C3)nc2)[C@H](C)NC(=O)C(F)(F)F)cc1 [Compound 76, [(34)-5-oxotetrahydrofuran-3-yl] (3S)-3-[[5-[(1R,2S)-1-(p-tolyl)-2-[(2,2,2-trifluoroacetyl)amino]propoxy]pyridine-2-carbonyl]amino]piperidine-1-carboxylate] | 6.52 to 7.00 |
